Counter-ions that a name gives are not always drawn.
Tests used:
[1] = target: T1, 5-HT4 receptors in the rat oesophagus (Rattus norvegicus, UniProt Q62758); test: Functional assay in rat oesophagus TMM preparation (relaxation of carbachol-contracted tissue); details: 1 μM antagonist added to bath
T1 construct: The remaining inner tube of smooth muscle was known as the TMM; from tissue; host or cells: rat oesophagus tunica muscularis mucosae (TMM), male SD rats (Charles River)
Source text: More specifically, partial agonist activity can be measured according to the following procedures.
Male SD rats (Charles River) weighing 250-350 g were stunned and then killed by cervical dislocation. The oesophagus was dissected from immediately proximal to the stomach (including piece of stomach to mark distal end) up to the level of the trachea and then placed in fresh Krebs' solution.
The outer skeletal muscle layer was removed in one go by peeling it away from the underlying smooth muscle layer using forceps (stomach to tracheal direction). The remaining inner tube of smooth muscle was known as the TMM. This was trimmed to 2 cm from the original ‘stomach-end’ and the rest discarded.
The TMMs were mounted as whole ‘open’ tubes in longitudinal orientation in 5 ml organ baths filled with warm (32° C.) aerated Krebs. Tissues were placed under an initial tension of 750 mg and allowed to equilibrate for 60 minutes. The tissues were re-tensioned twice at 15 minute intervals during the equilibration period. The pump flow rate was set to 2 ml/min during this time.
Following equilibration, the pump was switched off. The tissues were exposed to 1 μM carbachol and contracted and reached a steady contractile plateau within 15 minutes. Tissues were then subject to 1 μM 5-HT (this was to prime the tissues). The tissues relaxed in response to 5-HT fairly rapidly—within 1 minute. […]

T1 sequence (Q62758 whole entry): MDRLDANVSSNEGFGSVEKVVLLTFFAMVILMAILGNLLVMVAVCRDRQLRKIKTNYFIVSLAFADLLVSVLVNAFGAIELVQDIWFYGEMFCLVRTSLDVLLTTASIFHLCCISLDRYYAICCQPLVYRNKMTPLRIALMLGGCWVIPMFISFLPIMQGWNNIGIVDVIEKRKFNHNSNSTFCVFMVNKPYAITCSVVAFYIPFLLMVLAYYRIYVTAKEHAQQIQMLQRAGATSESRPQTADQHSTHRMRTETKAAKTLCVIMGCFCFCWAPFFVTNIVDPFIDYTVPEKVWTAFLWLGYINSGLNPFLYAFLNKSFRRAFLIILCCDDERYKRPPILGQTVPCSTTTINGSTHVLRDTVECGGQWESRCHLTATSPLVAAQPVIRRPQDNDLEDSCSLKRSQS

Row | melting point [°C] | SMILES | reversal of 5-HT induced relaxation [1]
1 | – | O=C(OCCN1CCCCC1)c1c[nH]c2ccccc12 [SB 203,186, 1H-Indole-3-carboxylic acid, 2-(1-piperidinyl)ethyl ester] | reversed 5-HT induced relaxation
2 | 194.2 | CC(C)n1c(=O)n(C(=O)NCC2CCN(CC(=O)N3CCOCC3)CC2)c2ccccc21 (as salt: oxalate) | –

Source: patent US7776885B2, “Benzimidazolone compounds having 5-HT4 receptor agonistic activity” (Pfizer, Inc., priority 2003, dated 2010)
